The values that follow come from patent publication US20240262812A1, “N-SUBSTITUTED PHENYLSULFONAMIDE COMPOUND AND USE THEREOF” (Shanghai Leado Pharmatech Co., Ltd., priority 2021, published 2024).

This experiment addresses T1, mTRPA1 (Mus musculus, UniProt Q8BLA8).
T1 construct: expressed in transfected cells
The experiment is described as follows: IonWorks Barracuda (IWB) automated patch clamp, TRPA1 inhibitory activity. The class given is cell-based. Conditions: HEK293 cells stably expressing mTRPA1, current induced by AITC, amplitude at +100 mV; read-out: IC50 (inhibition activity on TRPA1). How it is done: In this example, the inhibitory activity of the compounds prepared in some examples of the present invention on transient receptor potential channel protein ankyrin 1 (TRPA1) was tested. Among them, compound of formula A (WO2010075353) was used as the positive control compound: […]
Test method using IonWorks Barracuda (IWB) automated patch clamp detection: HEK293 cells stably expressing mTRPA1 were placed in the T175 culture flask with DMEM medium containing 15 µg/mL Blasticidin S HCl, 200 µg/mL Hygromycin B and 10% FBS, and cultured in 37° C., 5% CO2 incubator. When the cell density reached about 80%, the culture medium was removed, washed once with phosphate buffered saline (PBS) without calcium and magnesium. 3 mL of Trypsin was added to digest for 2 min, 7 mL of culture solution was added to terminate the digestion. The cells were collected to 15 mL centrifuge tube and centrifuged at 800 rpm for 3 min. After the supernatant was removed, the cells were added to appropriate volume of extracellular fluid for re-suspending, and the cell density was controlled at 2-3×10^6/mL for use in IWB experiment. Extracellular fluid formulation (in mM): 140 NaCl, 5 KCl, 1 MgCl2, 10 HEPES, 0.5 EGTA, 10 Glucose (pH 7.4); intracellular fluid formulation (in mM): 140 CsCl, 10 HEPES, 5 EGTA, 0.1 CaCl2, 1 MgCl2 (pH 7.2). 28 mg/mL of amphotericin B was freshly prepared with DMSO on the day of experiment, and then final concentration of 0.1 mg/mL was prepared with intracellular fluid.
Population patch clamp (PPC) plate was used in IWB experiment. The entire detection process was automatically carried out by the instrument, that is, extracellular fluid was added into 384 wells of PPC plate, and after intracellular fluid was added under PPC plate (in plenum), 6 µL of cell fluid was added for sealing test, and finally the intracellular fluid in plenum was replaced with intracellular fluid containing amphotericin B to establish a whole-cell recording mode after perforating sealed cells. The sampling frequency for recording TPRA1 current was 10 kHz, the cells were clamped at 0 mV, the voltage stimulation command (channel protocol) was a ramp voltage from −100 mV to +100 mV for 300 ms. This voltage stimulation was applied every 10 s, mTRPA1 current was induced by 300 µM AITC.
Data recording and current amplitude measurement export were carried out by IWB software (version 2.5.3, Molecular Devices Corporation, Union City, CA). No statistics was recorded for holes with sealing impedance lower than 20 MΩ. The original current data was corrected by software for leak subtraction. TRPA1 current amplitude was measured at +100 mV. […] If IC50 value of HC030031 exceeded 3 times of the average IC50 value previously obtained on each plate, it would be re-tested. The dose-effect curve of compounds and IC50 were fitted and calculated by GraphPad Prism 5.02 (GraphPad Software, San Diego, CA).
Some compounds of the present invention were subjected to IC50 inhibition activity test using the IonWorks Barracuda (IWB) automated patch clamp detection method.
(In general: Patch clamp records ionic current or voltage across a cell membrane.)

T1 sequence (Q8BLA8 whole entry): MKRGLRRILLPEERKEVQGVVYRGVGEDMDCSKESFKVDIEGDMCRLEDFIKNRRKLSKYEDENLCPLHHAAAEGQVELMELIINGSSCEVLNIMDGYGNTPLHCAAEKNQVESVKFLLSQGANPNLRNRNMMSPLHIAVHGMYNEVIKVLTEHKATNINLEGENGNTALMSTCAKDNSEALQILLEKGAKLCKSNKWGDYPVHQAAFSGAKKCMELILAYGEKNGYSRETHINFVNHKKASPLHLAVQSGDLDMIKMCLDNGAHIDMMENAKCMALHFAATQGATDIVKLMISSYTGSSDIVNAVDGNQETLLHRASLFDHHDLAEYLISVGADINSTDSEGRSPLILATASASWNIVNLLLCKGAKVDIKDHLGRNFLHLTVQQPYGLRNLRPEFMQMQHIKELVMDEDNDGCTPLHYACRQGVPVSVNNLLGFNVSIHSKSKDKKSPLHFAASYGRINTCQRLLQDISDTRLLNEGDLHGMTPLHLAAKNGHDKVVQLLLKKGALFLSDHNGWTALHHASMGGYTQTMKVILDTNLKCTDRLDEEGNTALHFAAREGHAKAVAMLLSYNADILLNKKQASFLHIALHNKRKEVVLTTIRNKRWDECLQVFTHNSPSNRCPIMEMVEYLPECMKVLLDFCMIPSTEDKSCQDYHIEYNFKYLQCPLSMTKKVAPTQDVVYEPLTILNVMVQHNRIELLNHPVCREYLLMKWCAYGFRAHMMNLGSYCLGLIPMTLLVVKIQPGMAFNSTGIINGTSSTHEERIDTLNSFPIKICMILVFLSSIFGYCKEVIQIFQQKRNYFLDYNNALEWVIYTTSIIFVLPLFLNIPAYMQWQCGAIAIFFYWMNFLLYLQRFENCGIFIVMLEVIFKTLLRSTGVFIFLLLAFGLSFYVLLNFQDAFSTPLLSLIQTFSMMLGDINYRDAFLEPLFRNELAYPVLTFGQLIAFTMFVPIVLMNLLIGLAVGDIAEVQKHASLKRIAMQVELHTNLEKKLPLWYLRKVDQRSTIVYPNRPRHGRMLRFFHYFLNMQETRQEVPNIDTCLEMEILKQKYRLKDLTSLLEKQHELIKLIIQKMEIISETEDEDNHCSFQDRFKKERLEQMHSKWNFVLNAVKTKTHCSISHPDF

The term IC50 denotes the concentration that inhibits the measured activity by half. In the case of `NCc1ccc(-c2ccco2)c(NS(=O)(=O)c2ccc(F)cc2)c1` [ID-2, N-(5-(aminomethyl)-2-(furan-2-yl)phenyl)-4-fluorobenzenesulfonamide], the IC50 lay within 1 to 5 µM.

With `CC(C)C(N)c1ccc(NS(=O)(=O)c2ccccc2)c(-c2ccco2)c1` (stereo not shown) [IU-5, N-(4-(1-amino-2-methylpropyl)-2-(furan-2-yl)phenyl)benzenesulfonamide], the IC50 was less than 1 µM.

Consider `CNCc1ccc(NS(=O)(=O)c2ccc(F)cc2)c(-c2ccco2)c1` [IA-27, 4-Fluoro-N-(2-(furan-2-yl)-4-((methylamino)methyl)phenyl)benzenesulfonamide], for which the IC50 was in the range of 1 to 5 µM.

Regarding `CNCc1ccc(-c2ccco2)c(NS(=O)(=O)c2cccs2)c1` [IA-20, N-(2-(furan-2-yl)-5-((methylamino)methyl)phenyl)thiophene-2-sulfonamide], the half-inhibitory concentration (IC50) was in the range of 1 to 5 µM.

On to `CNCc1ccc(NS(=O)(=O)c2ccccc2)c(-c2ccco2)c1` [IA-26, N-(2-(furan-2-yl)-4-((methylaamino)methyl)phenyl)benzenesulfonamide], for which the IC50 lay in the range of 1 to 5 µM.

With `CNCc1ccc(-c2ccco2)c(NS(=O)(=O)c2ccc(Cl)s2)c1` [IA-22, 5-Chloro-N-(2-(furan-2-yl)-5-((methylamino)methyl)phenyl)thiophene-2-sulfonamide], the 50% inhibitory concentration (IC50) is 20 to 50 µM.

With `CNCc1ccc(NS(=O)(=O)c2ccccc2)cc1-c1ccco1` [IA-36, N-(3-(furan-2-yl)-4-((methylamino)methyl)phenyl)benzenesulfonamide], the IC50 was in the range of 20 to 50 µM.

As to `O=S(=O)(Nc1cc(CNCC(F)(F)F)ccc1-c1ccco1)c1ccccc1` [IA-25], the 50% inhibitory concentration (IC50) was 20 to 50 µM.

For `CNCc1ccc(-c2ccco2)c(NS(=O)(=O)c2ccc(Cl)cc2)c1` [IA-7], the IC50 is 5 to 10 µM.

Turning to `O=S(=O)(Nc1cc(/C=N\O)ccc1-c1ccco1)c1ccccc1` [IC-1, N-(2-(furan-2-yl)-5-((oximido)methyl)phenyl)benzenesulfonamide], the IC50 fell in the range of 20 to 50 µM.

Turning to `O=S(=O)(Nc1cc(CO)ccc1-c1ccco1)c1ccccc1` [IH, N-(2-(furan-2-yl)-5-(hydroxymethyl)phenyl)benzenesulfonamide], the IC50 was 20 to 50 µM.

With `CNCc1ccc(-n2ccnn2)c(NS(=O)(=O)c2ccccc2)c1` [IQ-4, N-(5-((methylamino)methyl)-2-(1H-1,2,3-triazol-1-yl)phenyl)benzenesulfonamide], the IC50 is 5 to 10 µM.

In the case of `CNCc1ccc(-c2ccco2)c(NS(=O)(=O)c2ccc(Cl)nc2)c1` [IA-18, 6-Chloro-N-(2-(furan-2-yl)-5-((methylamino)methyl)phenyl)pyridine-3-sulfonamide], the IC50 is 10 to 20 µM.

Consider `CNCc1ccc(-c2ccco2)c(NS(=O)(=O)c2ccc(OC(F)(F)F)cc2)c1` [IA-9, 4-Trifluoromethoxy-N-(2-(furan-2-yl)-5-((methylamino)methyl)phenyl)benzenesulfonamide], for which the IC50 fell in the range of 20 to 50 µM.

On to `NC(c1ccc(NS(=O)(=O)c2ccccc2)c(-c2ccco2)c1)C1CC1` (stereo not shown) [IU-6, N-(4-(amino(cyclopropyl)methyl)-2-(furan-2-yl)phenyl)benzenesulfonamide], for which the half-maximal inhibitory concentration (IC50) is less than 1 µM.

Consider `CNCc1ccc(-c2ccco2)c(NS(=O)(=O)c2ccc3ccccc3c2)c1` [IA-14, N-(2-(furan-2-yl)-5-((methylamino)methyl)phenyl)naphthalene-2-sulfonamide], for which the IC50 lay in the range of 50 to 100 µM.

On to `CNCc1ccc(-c2cnn(C)c2)c(NS(=O)(=O)c2ccccc2)c1` [IA-56, N-(2-(1-methyl-1H-pyrazole-4-yl)-5-((methylamino)methyl)phenyl)benzenesulfonamide], for which the IC50 was 10 to 20 µM.

As for `CC(N)c1ccc(N(C)S(=O)(=O)c2ccccc2)c(-c2ccco2)c1` (stereo not shown) [IU-1], the half-inhibitory concentration (IC50) lay within 1 to 5 µM.

As to `CNCc1ccc(-c2cnc[nH]2)c(NS(=O)(=O)c2ccccc2)c1` [IA-61, N-(2-(1H-imidazol-5-yl)-5-((methylamino)methyl)phenyl)benzenesulfonamide], the IC50 fell in the range of 10 to 20 µM.

For the compound `C[C@H]1CCCN1c1ccc(-c2csc(NC(=O)Cn3cnc4c3c(=O)n(C)c(=O)n4C)n2)cc1F` [Compound of formula A, reference compound], the half-inhibitory concentration (IC50) fell in the range of 50 to 100 µM.

Regarding `CNCc1ccc(-c2cc[nH]n2)c(NS(=O)(=O)c2ccccc2)c1` [IA-54, N-(5-((methylamino)methyl)-2-(1H-pyrazol-5-yl)phenyl)benzenesulfonamide], the IC50 lay in the range of 1 to 5 µM.

Turning to `CNCc1ccc(-c2c(C)n[nH]c2C)c(NS(=O)(=O)c2ccccc2)c1` [IA-58, N-(2-(3,5-dimethyl-1H-pyrazole-4-yl)-5-((methylamino)methyl)phenyl)benzenesulfonamide], the IC50 is 50 to 100 µM.

As for `CNCc1ccc(-c2ccco2)c(NS(=O)(=O)c2ccccc2)c1` [IA-4, N-(2-(furan-2-yl)-5-((methylamino)methyl)phenyl)benzenesulfonamide], the 50% inhibitory concentration (IC50) was in the range of 1 to 5 µM.

Regarding `NCc1ccc(NS(=O)(=O)c2ccc(F)cc2)c(-c2ccco2)c1` [ID-6, N-(4-(aminomethyl)-2-(furan-2-yl)phenyl)-4-fluorobenzenesulfonamide], the IC50 lay within 1 to 5 µM.

Turning to `CNCc1ccc(-c2ccco2)c(NS(=O)(=O)c2c(F)cccc2F)c1` [IA-12, 2,6-Difluoro-N-(2-(furan-2-yl)-5-((methylamino)methyl)phenyl)benzenesulfonamide], the half-maximal inhibitory concentration (IC50) is 5 to 10 µM.

Take `CNCc1ccc(-c2ncc(C)s2)c(NS(=O)(=O)c2ccccc2)c1` [IA-59, N-(5-((methylamino)methyl)-2-(5-methylthiazol-2-yl)phenyl)benzenesulfonamide]: the half-inhibitory concentration (IC50) fell in the range of 5 to 10 µM.

For the compound `CNCc1ccc(-c2ccco2)c(NS(=O)(=O)c2ccc3ncsc3c2)c1` [IA-16, N-(2-(furan-2-yl)-5-((methylamino)methyl)phenyl)benzothiazole-6-sulfonamide], the IC50 lay in the range of 5 to 10 µM.

For `CNCc1ccc(-c2ccco2)c(NS(=O)(=O)c2cccnc2)c1` [IA-17, N-(2-(furan-2-yl)-5-((methylamino)methyl)phenyl)pyridine-3-sulfonamide], the half-inhibitory concentration (IC50) lay within 5 to 10 µM.

Turning to `CNCc1ccc(-c2ccoc2)c(NS(=O)(=O)c2ccc(F)cc2)c1` [IA-41, 4-Fluoro-N-(2-(furan-3-yl)-5-((methylamino)methyl)phenyl)benzenesulfonamide], the IC50 lay within 5 to 10 µM.

For `CNCCc1ccc(NS(=O)(=O)c2ccsc2)c(-c2ccco2)c1` [IS, N-(2-(furan-2-yl)-4-(2-(methylamino)ethyl)phenyl)thiophene-3-sulfonamide], the half-inhibitory concentration (IC50) was in the range of 1 to 5 µM.

With `CCC(N)c1ccc(NS(=O)(=O)c2ccccc2)c(-c2ccco2)c1` (stereo not shown) [IU-3, N-(4-(1-aminopropyl)-2-(furan-2-yl)phenyl)benzenesulfonamide], the IC50 was less than 1 µM.

In the case of `O=S(=O)(Nc1ccc(CNC2CCC2)cc1-c1ccco1)c1ccsc1` [IA-34, N-(4-((cyclobutylamino)methyl)-2-(furan-2-yl)phenyl)thiophene-3-sulfonamide], the half-inhibitory concentration (IC50) was 1 to 5 µM.

Consider `CNCc1ccc(-c2cccs2)c(NS(=O)(=O)c2cccs2)c1` [IA-47, N-(2-(thiophene-2-yl)-5-((methylamino)methyl)phenyl)thiophene-2-sulfonamide], for which the 50% inhibitory concentration (IC50) fell in the range of 1 to 5 µM.

Consider `CNCc1ccc(NS(=O)(=O)c2ccccc2F)c(-c2ccco2)c1` [IA-28, 2-Fluoro-N-(2-(furan-2-yl)-4-((methylamino)methyl)phenyl)benzenesulfonamide], for which the IC50 lay in the range of 1 to 5 µM.

Take `CNCc1ccc(-c2c(C)noc2C)c(NS(=O)(=O)c2ccccc2)c1` [IA-53, N-(2-(3,5-dimethylisoxazol-4-yl)-5-((methylamino)methyl)phenyl)benzenesulfonamide]: the half-maximal inhibitory concentration (IC50) is 5 to 10 µM.

As to `CNCc1ccc(-c2ccco2)c(NS(=O)(=O)c2ccccc2OC(F)(F)F)c1` [IA-8, 2-Trifluoromethoxy-N-(2-(furan-2-yl)-5-((methylamino)methyl)phenyl)benzenesulfonamide], the IC50 lay in the range of 10 to 20 µM.

As to `CNCc1ccc(-c2ccco2)c(NS(=O)(=O)c2ccc(C)cc2)c1` [IA-10, 4-Methyl-N-(2-(furan-2-yl)-5-((methylamino)methyl)phenyl)benzenesulfonamide], the concentration for half-maximal inhibition (IC50) lay within 1 to 5 µM.
